{"source": "patent US20150305328A1", "about": "“METHODS OF SAFENING SUGAR CANE PLANTS WITH N-ACYLSULFAMOYLPHENYLUREAS” (SYNGENTA PARTICIPATIONS AG, priority 2012, published 2015)", "system": "sugar cane varieties SP803280 and RB835486", "test": "Glasshouse safening test: visual phytotoxicity of pre-emergent herbicides on sugar cane grown from safener-soaked single-node stem sections", "assay_type": "in vivo", "experimental": "In the following examples, two commercial and contemporary Brazilian sugar cane varieties were used in the experiential testing, SP803280 and RB835486. The sugar cane propagation material was prepared using single-node stem sections approximately 8 cm in length. The stem sections were treated by soaking for about 10 seconds in a solution containing Formula A=1-[4-(N-2-methoxybenzoylsulfamoyl)phenyl]-3-methylurea (15 ml of formulated product in 500 ml water; the formulated product contained 100 grams of Formula A per liter of formulated product). Four stem segments (replicates) were planted in and covered with 1 cm of the regular live loam soil used in glasshouse screening using standard planting troughs, putting each variety in a separate trough. Seeds of one of two appropriate weeds, Euphorbia heterophylla or Brachiaria decumbens were also planted in each trough in a clump to give a measure of relative weeds control alongside crop phytotoxicity. Plants were assessed for percentage visual phytotoxicity at 7 day intervals after application (DAA) up to 35 DAA. Three herbicides, all having different modes-of-action were applied the day after planting as pre-emergent herbicide. The herbicides applied were: clomazone (Gamit®) having a DOXP mode-of-action (inhibition of the 1-desoxy-D-xylulose 5-phosphate), sufentrazone (Boral®) having a PPO mode-of-action (inhibition of protoporphyrinogen oxidase), and bicyclopyrone having an HPPD mode-of-action (inhibition of the enzyme 4-hydoxyphenylpyruvate dioxygenase). Application of each herbicide was applied at 600, 1200, 1600, and 2000 grams per hectare equivalents. Results: Shown in FIGS. 1-12 (DAA—Herbicide—Sugar Cane Variety)", "data": [{"smiles": "CNC(=O)Nc1ccc(S(=O)(=O)NC(=O)c2ccccc2OC)cc1", "note": "[Formula A, 1-[4-(N-2-methoxybenzoylsulfamoyl)phenyl]-3-methylurea]", "values": [{"measurement": "safening of sulfentrazone", "setting": "both varieties of sugar cane, stem sections soaked in Formula A", "value": "very effectively"}, {"measurement": "phytotoxicity level with sulfentrazone after Formula A treatment", "setting": "percentage visual phytotoxicity, reduced from 80%, in certain instances", "value": "zero"}, {"measurement": "safening of bicyclopyrone", "setting": "stem sections soaked in Formula A, bicyclopyrone applied pre-emergent", "value": "strong safening"}, {"measurement": "safening of clomazone", "setting": "stem sections soaked in Formula A, clomazone applied pre-emergent", "value": "strong safening"}, {"measurement": "safening effect as sugar cane propagation material applied safener", "setting": "with all three herbicides (clomazone, sulfentrazone, bicyclopyrone), applied pre-emergent at 600-2000 g/ha, FIGS. 1-12, 28 and 35 DAA", "value": "clear safening effect"}]}, {"smiles": "Cc1nn(-c2cc(NS(C)(=O)=O)c(Cl)cc2Cl)c(=O)n1C(F)F", "note": "[sulfentrazone, reference compound]", "values": [{"measurement": "phytotoxicity level of sulfentrazone without Formula A safening", "setting": "sugar cane, in vivo", "value": 80, "unit": "%"}]}]}
